Earlier results as cited in patent publication US20220117972A1, “USE OF PPAR-DELTA AGONISTS IN THE TREATMENT OF MITOCHONDRIAL MYOPATHY” (Reneo Pharmaceuticals, Inc., priority 2019, published 2022).

System: control myoblasts
Conditions: cultured patient muscle cells study; cited from earlier work

Row | Compound | FAO stimulation
1 | Cc1cc(SCc2sc(-c3ccc(C(F)(F)F)c(F)c3)nc2C)ccc1OCC(=O)O [GW 072] | stimulated FAO
2 | CC(C)(Sc1ccc(CCN(CCCCC2CCCCC2)C(=O)NC2CCCCC2)cc1)C(=O)O [GW 7647] | to a lower extent
